Measured values from patent publication US10501438B2, “Aryl-substituted dihydroquinolinones, their preparation and their use as pharmaceuticals” (NEOMED Institute, priority 2015, dated 2019).

These compounds were tested on human C-Myc transcription in MV-4-11 cells (assay: Transcription of human C-Myc in human leukemic MV-4-11 cells (QuantiGene 2.0)). Conditions: Homo sapiens, MV4-11, 4 h, inhibition of C-Myc mRNA, 4 hours treatment.
Assay type: cell-based
Description: b) Transcription of Human C-Myc in Human Leukemic MV-4-11 Cells:
The effect of compounds on transcription of human C-Myc gene is monitored in human B-myelomonocytic leukemia cell line MV-4-11 (from American Type Culture Collection (ATCC), Manassas, Va., USA) using QuantiGene 2.0 assay kit (Affymetrix, Santa Clara, Calif., USA).
Typically, 8,000 MV-4-11 cells are plated in sterile 96-well plates (Costar #3598 from Fisher Scientific Canada, Ottawa, Ontario, Canada) in Iscove's medium supplemented with 10% fetal bovine serum, glutamine (2 mM), and penicillin (100 I.U.) and streptomycin (100 μg/mL) (all from Wisent Inc., St. Bruno, Quebec, Canada). Compounds are dissolved in DMSO at 30 mM. A series of 1:3 dilutions are first made in DMSO, and further 1:100 dilutions are made in serum-containing cell culture media. The final concentration of DMSO is 0.1% in cell culture media. After cells are treated with various concentrations of test compound for 4 hours, cells are lysed using Quantigene 2.0 sample processing kit (#QS0100). C-Myc mRNA is detected using a QuantiGene 2.0 assay kit (#QS0009) with gene-specific probe to human C-Myc (#SA-50182) following the manufacturer's recommendations. Luminescene signals are read on Flexstation II microplate reader (Molecular Devices, Sunnyvale, Calif., USA).

SMILES | IC50 [nM]
Cc1cc(-c2cc3c(c(OCc4ccc(F)cn4)c2)NC(=O)CC3)cn(C)c1=O [Compound 77, 6-(1,5-dimethyl-6-oxo-1,6-dihydropyridin-3-yl)-8-((5-fluoropyridin-2-yl)methoxy)-3,4-dihydroquinolin-2(1H)-one] | 2280
Cc1cc(-c2cc3c(c(O[C@@H](C)c4ccccn4)c2)NC(=O)CC3)cn(C)c1=O [Compound 74a, (S)-6-(1,5-dimethyl-6-oxo-1,6-dihydropyridin-3-yl)-8-(1-(pyridin-2-yl)ethoxy)-3,4-dihydroquinolin-2(1H)-one] | 120
Cc1cc(-c2cc3c(c(COCC(F)(F)F)c2)NC(=O)CC3)cn(C)c1=O [Compound 46, 6-(1,5-dimethyl-6-oxo-1,6-dihydropyridin-3-yl)-8-((2,2,2-trifluoroethoxy)methyl)-3,4-dihydroquinolin-2(1H)-one] | 910
Cc1cc(-c2cc3c(cc2COC2CCC2)NC(=O)CC3)cn(C)c1=O [Compound 69, 7-(cyclobutoxymethyl)-6-(1,5-dimethyl-6-oxo-1,6-dihydropyridin-3-yl)-3,4-dihydroquinolin-2(1H)-one] | 1250
CC(=O)N(Cc1cc(-c2cc(C)c(=O)n(C)c2)cc2c1NC(=O)CC2)C1CCCC1 [Compound 98, N-cyclopentyl-N-((6-(1,5-dimethyl-6-oxo-1,6-dihydropyridin-3-yl)-2-oxo-1,2,3,4-tetrahydroquinolin-8-yl)methyl)acetamide] | 90
Cc1cc(-c2cc3c(c(OCC4CCCOC4)c2)NC(=O)CC3)cn(C)c1=O (stereo not shown) [Compound 54a, 6-(1,5-dimethyl-6-oxo-1,6-dihydropyridin-3-yl)-8-((tetrahydro-2H-pyran-3-yl)methoxy)-3,4-dihydroquinolin-2(1H)-one] | 550
Cc1cc(-c2cc3c(c(COC4CCCCC4)c2)NC(=O)CC3)cn(C)c1=O [Compound 27, 8-(cyclohexoxymethyl)-6-(1,5-dimethyl-6-oxo-3-pyridyl)-3,4-dihydro-1H-quinolin-2-one] | 150
Cc1cc(-c2ccc3c(c2COC2CCC2)NC(=O)CC3)cn(C)c1=O [Compound 39, 8-(cyclobutoxymethyl)-7-(1,5-dimethyl-6-oxo-1,6-dihydropyridin-3-yl)-3,4-dihydroquinolin-2(1H)-one] | 9850
Cc1cc(-c2ccc3c(c2COC2CCC2)CCC(=O)N3)cn(C)c1=O [Compound 67, 5-(cyclobutoxymethyl)-6-(1,5-dimethyl-6-oxo-1,6-dihydropyridin-3-yl)-3,4-dihydroquinolin-2(1H)-one] | 2030
Cc1cc(-c2cc(COC3CCCC3)c3c(c2)NC(=O)CC3)cn(C)c1=O [Compound 100, 5-((cyclopentyloxy)methyl)-7-(1,5-dimethyl-6-oxo-1,6-dihydropyridin-3-yl)-3,4-dihydroquinolin-2(1H)-one] | 610
Cc1cc(-c2cc3c(c(OCc4cncnc4)c2)NC(=O)CC3)cn(C)c1=O [Compound 53, 6-(1,5-dimethyl-6-oxo-1,6-dihydropyridin-3-yl)-8-(pyrimidin-5-ylmethoxy)-3,4-dihydroquinolin-2(1H)-one] | 2080
Cc1cc(-c2cc3c(c(OCC4CCOCC4)c2)NC(=O)CC3)cn(C)c1=O [Compound 72, 6-(1,5-dimethyl-6-oxo-1,6-dihydropyridin-3-yl)-8-((tetrahydro-2H-pyran-4-yl)methoxy)-3,4-dihydroquinolin-2(1H)-one] | > 6140
Cc1cc(-c2cc3c(c(OCc4ncco4)c2)NC(=O)CC3)cn(C)c1=O [Compound 81, 6-(1,5-dimethyl-6-oxo-1,6-dihydropyridin-3-yl)-8-(oxazol-2-ylmethoxy)-3,4-dihydroquinolin-2(1H)-one] | 530
Cc1cc(-c2cc3c(c(CN(C)C4CCCC4)c2)NC(=O)CC3)cn(C)c1=O [Compound 97, 8-((cyclopentyl(methyl)amino)methyl)-6-(1,5-dimethyl-6-oxo-1,6-dihydropyridin-3-yl)-3,4-dihydroquinolin-2(1H)-one] | 790
Cc1cc(-c2cc3c(c(OCC4CCCCO4)c2)NC(=O)CC3)cn(C)c1=O (stereo not shown) [Compound 55a, 6-(1,5-dimethyl-6-oxo-1,6-dihydropyridin-3-yl)-8-((tetrahydro-2H-pyran-2-yl)methoxy)-3,4-dihydroquinolin-2(1H)-one] | 580
Cc1cc(-c2cc3c(c(COC4CCOCC4)c2)NC(=O)CC3)cn(C)c1=O [Compound 47, 6-(1,5-dimethyl-6-oxo-1,6-dihydropyridin-3-yl)-8-(((tetrahydro-2H-pyran-4-yl)oxy)methyl)-3,4-dihydroquinolin-2(1H)-one] | 940

The next lines start with the values.

IC50 [nM] | SMILES
760 | Cc1cc(-c2cc3c(cc2/C=C/c2ccccc2)NC(=O)CC3)cn(C)c1=O [Compound 93, (E)-6-(1,5-dimethyl-6-oxo-1,6-dihydropyridin-3-yl)-7-styryl-3,4-dihydroquinolin-2(1H)-one]
890 | Cc1cc(-c2cc3c(cc2Cc2ccccn2)NC(=O)CC3)cn(C)c1=O [Compound 61, 6-(1,5-dimethyl-6-oxo-1,6-dihydropyridin-3-yl)-7-(pyridin-2-ylmethyl)-3,4-dihydroquinolin-2(1H)-one]
500 | Cc1cc(-c2cc3c(c(OCc4ccncc4)c2)NC(=O)CC3)cn(C)c1=O [Compound 73, 6-(1,5-dimethyl-6-oxo-1,6-dihydropyridin-3-yl)-8-(pyridin-4-ylmethoxy)-3,4-dihydroquinolin-2(1H)-one]
420 | Cc1cc(-c2cc3c(c(NCc4ccncc4)c2)NC(=O)CC3)cn(C)c1=O [Compound 28, 6-(1,5-dimethyl-6-oxo-3-pyridyl)-8-(4-pyridylmethylamino)-3,4-dihydro-1H-quinolin-2-one]
780 | Cc1cc(-c2ccc3c(c2CCc2ccccc2)CCC(=O)N3)cn(C)c1=O [Compound 96, 6-(1,5-dimethyl-6-oxo-1,6-dihydropyridin-3-yl)-5-phenethyl-3,4-dihydroquinolin-2(1H)-one]
560 | Cc1cc(-c2ccc3c(c2Cc2ccccc2C#N)CCC(=O)N3)cn(C)c1=O [Compound 89, 2-((6-(1,5-dimethyl-6-oxo-1,6-dihydropyridin-3-yl)-2-oxo-1,2,3,4-tetrahydroquinolin-5-yl)methyl)benzonitrile]
250 | Cc1cc(-c2ccc3c(c2Cc2ccccc2)NC(=O)CC3)cn(C)c1=O [Compound 30, 8-benzyl-7-(1,5-dimethyl-6-oxo-1,6-dihydropyridin-3-yl)-3,4-dihydroquinolin-2(1H)-one]
240 | Cc1cc(-c2cc3c(c(NC(C)c4ccccn4)c2)NC(=O)CC3)cn(C)c1=O (stereo not shown) [Compound 22, 6-(1,5-dimethyl-6-oxo-3-pyridyl)-8-[1-(2-pyridyl)ethylamino]-3,4-dihydro-1H-quinolin-2-one]
250 | Cc1cc(-c2ccc3c(c2Cc2cccnc2)CCC(=O)N3)cn(C)c1=O [Compound 58, 6-(1,5-dimethyl-6-oxo-1,6-dihydropyridin-3-yl)-5-(pyridin-3-ylmethyl)-3,4-dihydroquinolin-2(1H)-one]
860 | Cc1cc(-c2cc3c(cc2Cc2cccnc2)NC(=O)CC3)cn(C)c1=O [Compound 62, 6-(1,5-dimethyl-6-oxo-1,6-dihydropyridin-3-yl)-7-(pyridin-3-ylmethyl)-3,4-dihydroquinolin-2(1H)-one]
2230 | Cc1cc(-c2cc3c(cc2Cc2ccccn2)CCC(=O)N3)cn(C)c1=O [Compound 32, 7-(1,5-dimethyl-6-oxo-1,6-dihydropyridin-3-yl)-6-(pyridin-2-ylmethyl)-3,4-dihydroquinolin-2(1H)-one]
350 | Cc1cc(-c2cc3c(cc2Cc2cccc(F)c2)NC(=O)CC3)cn(C)c1=O [Compound 85, 6-(1,5-dimethyl-6-oxo-1,6-dihydropyridin-3-yl)-7-(3-fluorobenzyl)-3,4-dihydroquinolin-2(1H)-one]
2680 | Cc1cc(-c2cc3c(cc2Cc2cccnc2)CCC(=O)N3)cn(C)c1=O [Compound 101, 7-(1,5-dimethyl-6-oxo-1,6-dihydropyridin-3-yl)-6-(pyridin-3-ylmethyl)-3,4-dihydroquinolin-2(1H)-one]
2620 | Cc1cc(-c2cc3c(c(Oc4ccccc4)c2)NC(=O)CC3)cn(C)c1=O [Compound 15, 6-(1,5-dimethyl-6-oxo-1,6-dihydropyridin-3-yl)-8-phenoxy-3,4-dihydroquinolin-2(1H)-one]
290 | Cc1cc(-c2cc3c(cc2Cc2ccccc2)CCC(=O)N3)cn(C)c1=O [Compound 31, 6-benzyl-7-(1,5-dimethyl-6-oxo-1,6-dihydropyridin-3-yl)-3,4-dihydroquinolin-2(1H)-one]
100 | Cc1cc(-c2cc3c(c(NCc4cccnc4)c2)NC(=O)CC3)cn(C)c1=O [Compound 78, 6-(1,5-dimethyl-6-oxo-1,6-dihydropyridin-3-yl)-8-(pyridyl-3-ylmethylamino)-3,4-dihydro-1H-quinolin-2-one]
840 | Cc1cc(-c2cc(Cc3ccccc3)c3c(c2)NC(=O)CC3)cn(C)c1=O [Compound 99, 5-benzyl-7-(1,5-dimethyl-6-oxo-1,6-dihydropyridin-3-yl)-3,4-dihydroquinolin-2(1H)-one]

Same assay, conditions: inhibition of C-Myc mRNA, 4 hours treatment

SMILES | IC50 [nM]
Cc1cc(-c2cc3c(c(OCC4CCCOC4)c2)NC(=O)CC3)cn(C)c1=O (stereo not shown) [Compound 54b, 6-(1,5-dimethyl-6-oxo-1,6-dihydropyridin-3-yl)-8-((tetrahydro-2H-pyran-3-yl)methoxy)-3,4-dihydroquinolin-2(1H)-one] | 800
